According to patent US20210255193A1, “LYSINE REACTIVE PROBES AND USES THEREOF” (The Scripps Research Institute, priority 2017, published 2021):

Experiments:
Assay in all cases: competitive isoTOP-ABPP
Format in all cases: binding
[1] = target: T1, PSME3 Proteasome activator complex subunit 3 (Homo sapiens, UniProt P61289); design: key to isoTOP-ABPP reactivity ratio at lysine P61289_K237: R = MS1 peak area ratio, DMSO (heavy) / compound-treated (light); key to isoTOP-ABPP reactivity ratio at lysine P61289_K12: R = MS1 peak area ratio, DMSO (heavy) / compound-treated (light); capped at 20; conditions: 50 uM, in vitro; for isoTOP-ABPP reactivity ratio at lysine P61289_K12 / isoTOP-ABPP reactivity ratio at lysine P61289_K237: 231 sol; for isoTOP-ABPP ratio (R) at liganded lysine P61289_K12 / isoTOP-ABPP ratio (R) at liganded lysine P61289_K237: sol, 231
T1 construct: isoTOP-ABPP experiments performed in cell lysates (in vitro); endogenous in cells; host or cells: soluble proteome of human cancer cell lines (MDA-MB-231, Ramos, Jurkat)
T1 sequence (P61289 whole entry, one chain of several): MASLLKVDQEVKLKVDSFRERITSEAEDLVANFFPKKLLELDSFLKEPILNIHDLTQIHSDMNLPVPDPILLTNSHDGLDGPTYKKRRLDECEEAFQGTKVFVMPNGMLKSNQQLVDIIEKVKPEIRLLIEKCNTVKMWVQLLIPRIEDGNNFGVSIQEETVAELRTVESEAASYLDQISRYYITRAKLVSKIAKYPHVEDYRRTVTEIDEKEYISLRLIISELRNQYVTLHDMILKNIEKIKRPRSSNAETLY
Protocol: (§1) In vitro covalent fragment treatment for isoTOP-ABPP. All compounds were made up as solutions in DMSO (100×) and were used at a final concentration of 50 μM for activated esters and 100 μM for guanidinylating agents. For each profiling sample, 0.5 ml of lysate was treated with 5 μl of the 100× compound stock solution or 5 μl of DMSO. Samples were treated with activated esters for
(§2) STP-alkyne labeling and click chemistry. For concentration-dependent reactivity measurements by isoTOP-ABPP, 0.5 ml proteome aliquots were treated at ambient temperature with 1 mM STP-alkyne 1 (5 μl of 100 mM stock in DMSO) and 0.1 mM STP alkyne 1 (5 μl of 10 mM stock in DMSO), respectively. For competitive isoTOP-ABPP, after in vitro fragment treatment (detailed above), the samples were labeled for 1 h at ambient temperature with 0.1 mM STP-alkyne 1 (5 μl of 10 mM stock in DMSO). Samples were conjugated by copper-mediated azide-alkyne cycloaddition (CuAAC) to either the light (1 mM STP-alkyne or fragment treated) or heavy (0.1 mM STP-alkyne or DMSO treated) TEV tags (10 μl of 5 mM stocks in DMSO, final concentration=100 μM) using tris(2-carboxyethyl)phosphine hydrochloride
(§3) R value calculation and processing. The ratios of light and heavy MS1 peaks for each unique peptide were quantified with a CIMAGE software using default parameters (3 MS1 acquisitions per peak and signal to noise threshold set to 2.5). For reactivity measurements by isoTOP-ABPP, the R value was calculated from the ratio of MS1 peak areas, comparing the 1 mM STP alkyne sample (light TEV tag) with the 0.1 mM STP alkyne sample (heavy TEV tag). For competitive isoTOP-ABPP, the R value was calculated from the ratio of MS1 peak areas, comparing the DMSO treated sample (heavy TEV tag) with the compound treated sample (light TEV tag). […] Ratios for unique peptide entries are calculated for each experiment; overlapping peptides with the same modified lysine (for example, different charge states, MudPIT chromatographic steps or tryptic termini) are grouped together and the median ratio is reported as the final ratio (R). The peptide ratios reported by CIMAGE were further filtered to ensure the removal or correction of low-quality ratios in each individual data set. The quality filters applied were the following: removal of half tryptic peptides; for ratios with high standard deviations from the median (90% of the median or above) the lowest ratio was taken instead of the median; removal of peptides with R=20 and only a single MS2 event triggered during the elution of the parent ion; manual annotation of all the peptides with ratios of 20, removing any peptides with low quality elution profiles that remained after the previous curation steps (only done for competitive isoTOP-ABPP).
(§4) Cross-data processing for fragment screening. For compound treated samples, biological replicates of the same condition were averaged, if the standard deviation was below 60% of the mean; otherwise, for lysines with at least one R value <4 for a particular compound, the lowest value of the ratio set was taken. For lysines, where all R values for a particular compound were ≥4, the average was reported. For peptides containing several possible modified lysines, the lysine with the highest number of quantification events was used for analysis and the remaining, redundant peptides were reported as alternative modification sites. Peptides included in the aggregate dataset (those used for further bioinformatics and statistical analyses) were required to have been quantified in 2 experiments for competitive isoTOP-ABPP. Lysines were categorized as liganded, if they had at least one ratio R≥4 (hit fragments). For liganded lysines with R=20 for all liganding events, lysines were required to have been quantified with R=20 in two separate experiments and were further required to have been quantified with R<20 in one additional experiment.

HK1 Hexokinase-1 = target: T2, HK1 Hexokinase-1 (Homo sapiens, UniProt P19367); design: key to isoTOP-ABPP reactivity ratio at lysine P19367_K510: R = MS1 peak area ratio, DMSO (heavy) / compound-treated (light); conditions: 50 uM, in vitro; for isoTOP-ABPP reactivity ratio at lysine P19367_K510: 231 sol; for isoTOP-ABPP ratio (R) at liganded lysine P19367_K510: sol, 231
T2 construct: isoTOP-ABPP experiments performed in cell lysates (in vitro); endogenous in cells; host or cells: soluble proteome of human cancer cell lines (MDA-MB-231; Ramos and Jurkat also prepared)
T2 sequence (P19367 1-917): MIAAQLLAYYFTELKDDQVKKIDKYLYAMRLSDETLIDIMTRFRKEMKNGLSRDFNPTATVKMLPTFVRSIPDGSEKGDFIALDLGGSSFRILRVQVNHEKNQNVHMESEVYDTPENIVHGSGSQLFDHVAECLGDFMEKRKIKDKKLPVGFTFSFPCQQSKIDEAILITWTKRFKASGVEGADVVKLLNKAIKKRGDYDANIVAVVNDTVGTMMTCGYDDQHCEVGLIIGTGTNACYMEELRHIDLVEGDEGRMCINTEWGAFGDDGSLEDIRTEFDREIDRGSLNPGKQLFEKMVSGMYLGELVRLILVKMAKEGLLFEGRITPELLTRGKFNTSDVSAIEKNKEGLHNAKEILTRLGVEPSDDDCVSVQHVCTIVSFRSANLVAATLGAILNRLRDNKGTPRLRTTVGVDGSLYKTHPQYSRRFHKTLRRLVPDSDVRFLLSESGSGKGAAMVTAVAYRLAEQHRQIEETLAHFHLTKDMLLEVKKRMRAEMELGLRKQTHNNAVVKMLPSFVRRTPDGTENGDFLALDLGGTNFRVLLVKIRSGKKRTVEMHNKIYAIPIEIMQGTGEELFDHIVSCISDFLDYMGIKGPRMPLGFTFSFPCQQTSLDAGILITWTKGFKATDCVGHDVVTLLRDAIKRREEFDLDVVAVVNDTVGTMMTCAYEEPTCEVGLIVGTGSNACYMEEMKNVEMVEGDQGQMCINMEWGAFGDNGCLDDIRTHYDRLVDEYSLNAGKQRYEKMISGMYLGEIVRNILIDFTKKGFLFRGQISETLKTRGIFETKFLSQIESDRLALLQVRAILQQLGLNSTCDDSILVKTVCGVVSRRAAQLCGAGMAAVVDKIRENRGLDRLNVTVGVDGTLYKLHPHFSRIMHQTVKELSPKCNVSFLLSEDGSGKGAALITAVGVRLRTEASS
Protocol: as §1, §2, §3, §4

[2] = target: T3, NUDT2 Bis(5-nucleosyl)-tetraphosphatase (Homo sapiens, UniProt P50583); design: key to isoTOP-ABPP reactivity ratio at lysine P50583_K89: R = MS1 peak area ratio, DMSO (heavy) / compound-treated (light); conditions: 50 uM, in vitro; for isoTOP-ABPP reactivity ratio at lysine P50583_K89: 231 sol; for isoTOP-ABPP ratio (R) at liganded lysine P50583_K89: sol, 231
T3 construct: isoTOP-ABPP experiments performed in cell lysates (in vitro); endogenous in cells
T3 sequence (P50583 whole entry): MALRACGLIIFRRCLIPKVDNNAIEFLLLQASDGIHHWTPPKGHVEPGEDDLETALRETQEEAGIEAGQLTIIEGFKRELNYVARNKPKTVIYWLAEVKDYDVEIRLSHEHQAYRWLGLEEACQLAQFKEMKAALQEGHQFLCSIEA
Protocol: as §1, §2, §3, §4

## O=C(CCc1cn(-c2ccccc2)nc1-c1ccccc1)Oc1ccc([N+](=O)[O-])cc1[N+](=O)[O-] [fragment 29, 2,4-Dinitrophenyl 3-(1,3-diphenyl-1H-pyrazol-4-yl)propanoate]
[1]
  isoTOP-ABPP reactivity ratio at lysine P61289_K12: 1.1
  isoTOP-ABPP reactivity ratio at lysine P61289_K237: 0.4
HK1 Hexokinase-1
  isoTOP-ABPP reactivity ratio at lysine P19367_K510: 10.8
[2]
  isoTOP-ABPP reactivity ratio at lysine P50583_K89: 1.0

## O=C(Oc1ccc([N+](=O)[O-])cc1[N+](=O)[O-])C(c1ccccc1)c1ccccc1 [fragment 30, 2,4-Dinitrophenyl 2,2-diphenylacetate]
[1]
  isoTOP-ABPP reactivity ratio at lysine P61289_K237: 4.3
HK1 Hexokinase-1
  isoTOP-ABPP reactivity ratio at lysine P19367_K510: 1.0
[2]
  isoTOP-ABPP reactivity ratio at lysine P50583_K89: 1.1

## O=C(Oc1ccc([N+](=O)[O-])cc1[N+](=O)[O-])c1cc(C(F)(F)F)cc(C(F)(F)F)c1 [fragment 31, 2,4-Dinitrophenyl 3,5-bis(trifluoromethyl)benzoate]
[1]
  isoTOP-ABPP reactivity ratio at lysine P61289_K12: 1.1
  isoTOP-ABPP reactivity ratio at lysine P61289_K237: 1.1
HK1 Hexokinase-1
  isoTOP-ABPP reactivity ratio at lysine P19367_K510: 1.1
[2]
  isoTOP-ABPP reactivity ratio at lysine P50583_K89: 0.8

## Cn1cc(CC(=O)Oc2ccc([N+](=O)[O-])cc2[N+](=O)[O-])c2ccccc21 [fragment 32, 2,4-Dinitrophenyl 2-(1-methyl-1H-indol-3-yl)acetate]
[1]
  isoTOP-ABPP reactivity ratio at lysine P61289_K12: 4.7
  isoTOP-ABPP reactivity ratio at lysine P61289_K237: 5.1
HK1 Hexokinase-1
  isoTOP-ABPP reactivity ratio at lysine P19367_K510: 8.6
[2]
  isoTOP-ABPP reactivity ratio at lysine P50583_K89: 3.7

## COc1cc(CCC(=O)Oc2ccc([N+](=O)[O-])cc2[N+](=O)[O-])cc(OC)c1OC [fragment 33, 2,4-Dinitrophenyl 3-(3,4,5-trimethoxyphenyl)propanoate]
[1]
  isoTOP-ABPP reactivity ratio at lysine P61289_K12: 2.1
  isoTOP-ABPP reactivity ratio at lysine P61289_K237: 1.1
HK1 Hexokinase-1
  isoTOP-ABPP reactivity ratio at lysine P19367_K510: 20.0
[2]
  isoTOP-ABPP reactivity ratio at lysine P50583_K89: 1.9

## O=C(Oc1ccc([N+](=O)[O-])cc1[N+](=O)[O-])C1CCN(C(=O)OCc2ccccc2)CC1 [fragment 34, 1-Benzyl 4-(2,4-dinitrophenyl) piperidine-1,4-dicarboxylate]
[1]
  isoTOP-ABPP ratio (R) at liganded lysine P61289_K12: 1.4
HK1 Hexokinase-1
  isoTOP-ABPP ratio (R) at liganded lysine P19367_K510: 20.0
[2]
  isoTOP-ABPP ratio (R) at liganded lysine P50583_K89: 1.0

## O=C(Oc1ccc([N+](=O)[O-])cc1[N+](=O)[O-])c1ccc2ccccc2n1 [fragment 35, 2,4-Dinitrophenyl quinoline-2-carboxylate]
[1]
  isoTOP-ABPP ratio (R) at liganded lysine P61289_K12: 0.7
  isoTOP-ABPP ratio (R) at liganded lysine P61289_K237: 0.8
HK1 Hexokinase-1
  isoTOP-ABPP ratio (R) at liganded lysine P19367_K510: 1.1
[2]
  isoTOP-ABPP ratio (R) at liganded lysine P50583_K89: 1.6

## O=C(CCc1coc2cc(F)ccc2c1=O)Oc1ccc([N+](=O)[O-])cc1[N+](=O)[O-] [fragment 36, 2,4-Dinitrophenyl 3-(7-fluoro-4-oxo-4H-chromen-3-yl)propanoate]
[1]
  isoTOP-ABPP ratio (R) at liganded lysine P61289_K237: 1.4
HK1 Hexokinase-1
  isoTOP-ABPP ratio (R) at liganded lysine P19367_K510: 3.7
[2]
  isoTOP-ABPP ratio (R) at liganded lysine P50583_K89: 0.9

## O=C(Oc1ccc([N+](=O)[O-])cc1[N+](=O)[O-])c1ccc(-c2ccccc2)cc1 [fragment 37, 2,4-Dinitrophenyl [1,1′-biphenyl]-4-carboxylate]
[1]
  isoTOP-ABPP ratio (R) at liganded lysine P61289_K12: 0.9
  isoTOP-ABPP ratio (R) at liganded lysine P61289_K237: 1.0
HK1 Hexokinase-1
  isoTOP-ABPP ratio (R) at liganded lysine P19367_K510: 0.9
[2]
  isoTOP-ABPP ratio (R) at liganded lysine P50583_K89: 1.4

## O=C(CC12CC3CC(CC(C3)C1)C2)Oc1ccc([N+](=O)[O-])cc1[N+](=O)[O-] [fragment 38, 2,4-Dinitrophenyl 2-(adamantan-1-yl)acetate]
[1]
  isoTOP-ABPP ratio (R) at liganded lysine P61289_K12: 1.9
HK1 Hexokinase-1
  isoTOP-ABPP ratio (R) at liganded lysine P19367_K510: 1.7
[2]
  isoTOP-ABPP ratio (R) at liganded lysine P50583_K89: 0.9

## O=C(Oc1ccc([N+](=O)[O-])cc1[N+](=O)[O-])c1ccc(Oc2ccccc2)cc1 [fragment 39, 2,4-Dinitrophenyl 4-phenoxybenzoate]
[1]
  isoTOP-ABPP ratio (R) at liganded lysine P61289_K12: 0.9
  isoTOP-ABPP ratio (R) at liganded lysine P61289_K237: 0.9
HK1 Hexokinase-1
  isoTOP-ABPP ratio (R) at liganded lysine P19367_K510: 0.9
[2]
  isoTOP-ABPP ratio (R) at liganded lysine P50583_K89: 2.4

## CC(C)(C)OC(=O)NCCCC(=O)Oc1ccc([N+](=O)[O-])cc1[N+](=O)[O-] [fragment 41, 2,4-Dinitrophenyl 4-((tert-butoxycarbonyl)amino)butanoate]
[1]
  isoTOP-ABPP ratio (R) at liganded lysine P61289_K12: 3.5
  isoTOP-ABPP ratio (R) at liganded lysine P61289_K237: 2.2
HK1 Hexokinase-1
  isoTOP-ABPP ratio (R) at liganded lysine P19367_K510: 12.6
[2]
  isoTOP-ABPP ratio (R) at liganded lysine P50583_K89: 1.0

## O=C(Oc1ccc([N+](=O)[O-])cc1[N+](=O)[O-])C(c1ccccc1)(c1ccccc1)c1ccccc1 [fragment 42, 2,4-Dinitrophenyl 2,2,2-triphenylacetate]
[1]
  isoTOP-ABPP ratio (R) at liganded lysine P61289_K12: 0.9
  isoTOP-ABPP ratio (R) at liganded lysine P61289_K237: 0.9
HK1 Hexokinase-1
  isoTOP-ABPP ratio (R) at liganded lysine P19367_K510: 0.8
[2]
  isoTOP-ABPP ratio (R) at liganded lysine P50583_K89: 1.0
